# Measurements taken from patent US11976083B2, “Inhibitors of peptidylarginine deiminases” (Gilead Sciences, Inc., priority 2020, dated 2024).
# Biological target: T1, human PAD4 (Homo sapiens, UniProt Q9UM07)
# T1 construct: human PAD4 (NM_012387), A2-P663, was PCR amplified; His-SUMO (N, cleaved yes); made in house; host or cells: E. coli BL21(DE3)
# Assay: In vitro PAD4 BAEE biochemical assay
# Conditions: BAEE substrate 3 mM, 5 nM PAD4, 2 mM calcium chloride; geometric mean of multiple experiments
# Summary of the method: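 Recombinant PAD4 (5 nM final) with 2 mM CaCl2 was preincubated with compound for 30 min at 25 °C in MOPS pH 7.6 buffer with DTT, then reacted with 3 mM BAEE for 2 h at 25 °C. Released ammonia was detected fluorimetrically with o-phthalaldehyde/DTT; IC50 from four-parameter fit, geometric mean of experiments.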
# T1 sequence (Q9UM07 2-663): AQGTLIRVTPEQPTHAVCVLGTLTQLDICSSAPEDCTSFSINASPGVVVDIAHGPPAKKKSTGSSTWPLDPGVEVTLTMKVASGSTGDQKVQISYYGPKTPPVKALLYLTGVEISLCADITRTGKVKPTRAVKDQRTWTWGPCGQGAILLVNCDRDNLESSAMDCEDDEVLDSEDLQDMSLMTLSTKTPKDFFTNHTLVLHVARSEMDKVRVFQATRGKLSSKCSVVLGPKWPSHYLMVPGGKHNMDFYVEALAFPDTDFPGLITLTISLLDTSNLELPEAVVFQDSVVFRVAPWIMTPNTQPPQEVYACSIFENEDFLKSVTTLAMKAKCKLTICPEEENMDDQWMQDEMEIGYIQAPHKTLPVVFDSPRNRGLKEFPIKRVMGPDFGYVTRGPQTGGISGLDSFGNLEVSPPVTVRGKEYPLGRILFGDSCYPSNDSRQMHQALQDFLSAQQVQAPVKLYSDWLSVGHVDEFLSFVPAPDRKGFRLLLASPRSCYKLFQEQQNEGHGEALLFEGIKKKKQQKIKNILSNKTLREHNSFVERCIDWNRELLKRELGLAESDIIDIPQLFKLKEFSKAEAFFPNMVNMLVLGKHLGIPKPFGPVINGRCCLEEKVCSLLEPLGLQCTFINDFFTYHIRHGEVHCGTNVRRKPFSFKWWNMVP
row,IC50 [nM],Compound
1,62,"COc1cc(C(=O)N2C[C@H](N)[C@@H]3CC[C@H]2C3)cc2nc(-c3cc4ccc5nc4n3CC(F)(F)CCCCC3(CC3)C(=O)N[C@@H]5C)n(C)c12 [Example 475, (11~{R})-17-[5-[(1~{S},4~{R},5~{R})-4-amino-2-azabicyclo[3.2.1]octane-2-carbonyl]-7-methoxy-1-methyl-benzimidazol-2-yl]-3,3-difluoro-11-methyl-spiro[1,10,19-triazatricyclo[10.5.2.0^{15,18}]nonadeca-12(19),13,15(18),16-tetraene-8,1′-cyclopropane]-9-one]"
2,26,"COc1cc(C(=O)N2C[C@H](N)[C@@H]3CC[C@H]2C3)cc2nc(-c3cc4ccc5nc4n3CCCCCc3nc(Cl)ccc3C(=O)N[C@@H]5C)c(C)n12 [Example 811, (2~{R})-17-[7-[(1~{S),4~ {R},5~{R})-4-amino-2-azabicyclo[3.2.1]octane-2-carbonyl]-5-methoxy-3-methyl-imidazo[1,2-a]pyridin-2-yl]-8-chloro-2-methyl-3,9,16,22-tetrazatetracyclo[14.5.2.0^ {5,10).0^{19,23}]tricosa-1(21),5(10),6,8,17,19,22-heptaen-4-one]"
3,32,"C[C@H]1NC(=O)c2ccc(Cl)nc2CCCCCn2c(-c3nc4cc(C(=O)N[C@H]5CNCC[C@@H]5F)c(F)cc4n3C3CC3)cc3ccc1nc32 [Example 751, 2-[(2~{R})-8-chloro-2-methyl-4-oxo-3,9,16,22-tetrazatetracyclo[14.5.2.0^ {5,10}.0^{19,23}]tricosa-1(22),5(10),6,8,17,19(23),20-heptaen-17-yl]-1-cyclopropyl-6-fluoro-~{N}-[(3~{S}, 4~{S})-4-fluoro-3-piperidyl]benzimidazole-5-carboxamide]"
4,74,"COc1cc(C(=O)N2CCC[C@@H](N)C2)cc2nc(-c3cc4ccc5nc4n3CCCCCOCC(C)(C)C(=O)N[C@@H]5C)n(C)c12 [Example 17, (12~{R})-18-[5-[(3~{R})-3-aminopiperidine-1-carbonyl]-7-methoxy-1-methyl-benzimidazol-2-yl]-9,9,12-trimethyl-7-oxa-1,11,20-triazatricyclo[11.5.2.0^{16,19}]icosa-13(20),14,16(19),17-tetraen-10-one]"
5,105,"COc1cc(C(=O)N2CC[C@@H](OC(F)F)[C@@H](N)C2)cc2nc(-c3cc4ccc5nc4n3CCCCC[C@@H]3C[C@H]3C(=O)N[C@@H]5C)n(C)c12 [Example 6, (2~{R),5~{R},7~{R})-14-[5-[(3~{S},4~{R})-3-amino-4-(difluoromethoxy)piperidine-1-carbonyl]-7-methoxy-1-methyl-benzimidazol-2-yl]-2-methyl-3,13,19-triazatetracyclo[11.5.2.0^{5,7}.0^{16,20}] icosa-1(19),14,16(20),17-tetraen-4-one]"
6,39,"COc1cc(C(=O)N2[C@H]3CC[C@@H]2[C@H](N)C3)cc2nc(-c3cc4ccc5cc4n3CCCCCC[C@](C)(OC)C(=O)N[C@@H]5C)n(C)c12 [Example 339, (8~{S),11~{R})-17-[5-[(1~{R},2~{R},4~{S})-2-amino-7-azabicyclo[2.2.1]heptane-7-carbonyl]-7-methoxy-1-methyl-benzimidazol-2-yl]-8-methoxy-8,11-dimethyl-1,10-diazatricyclo[10.5.2.0^{15,18}]nonadeca-12(19),13,15(18),16-tetraen-9-one]"
7,42,"C[C@H]1NC(=O)c2ccccc2CCCC(F)(F)Cn2c(-c3nc4cc(C(=O)N[C@H]5CNCC[C@@H]5F)c(F)cc4n3C)cc3ccc1nc32 [Example 597, 2-[(2~{R})-14,14-difluoro-2-methyl-4-oxo-3,16,22-triazatetracyclo[14.5.2.0^ {5,10}.0^{19,23}]tricosa-1(21),5(10),6,8,17,19,22-heptaen-17-yl]-6-fluoro-~ {N}-[(3~{S},4~{S})-4-fluoro-3-piperidyl]-1-methyl-benzimidazole-5-carboxamide]"
8,54,"C[C@H]1NC(=O)C(C)(C)CCCCCCn2c(-c3nc4cc(C(=O)N5CCC[C@@H](N)C5)ccc4n3C3CC3)cc3ccc1nc32 [Example 117, (11~{R})-17-[5-[(3~{R})-3-aminopiperidine-1-carbonyl]-1-cyclopropyl-benzimidazol-2-yl]-8,8,11-trimethyl-1,10,19-triazatricyclo[10.5.2.0^{15,18}]nonadeca-12(19),13,15(18),16-tetraen-9-one]"
9,36,"COc1cc(C(=O)N2CCC[C@@H](N)C2)cc2nc(-c3cc4ccc5nc4n3CCCCC[C@@H]3C[C@H]3C(=O)N[C@@H]5C)n(C)c12 [Example 157, (2~{R},5~{R},7~{R})-14-[5-[(3~{R})-3-aminopiperidine-1-carbonyl]-7-methoxy-1-methyl-benzimidazol-2-yl]-2-methyl-3,13,19-triazatetracyclo[11.5.2.0^{5,7}.0^{16,20}] icosa-1(19),14,16(20),17-tetraen-4-one]"
10,137,"COc1cc(C(=O)N2CC[C@@H](OC)[C@@H](N)C2)cc2nc(-c3cc4ccc5nc4n3CCCCCc3cccc(C)c3C(=O)N[C@@H]5C)n(C)c12 [Example 362, (2~{R})-17-[5-[(3~{S},4~{R})-3-amino-4-methoxy-piperidine-1-carbonyl]-7-methoxy-1-methyl-benzimidazol-2-yl]-2,6-dimethyl-3,16,22-triazatetracyclo[14.5.2.0^{5,10}.0^{19,23}] tricosa-1(22),5(10),6,8,17,19(23),20-heptaen-4-one]"
11,28,COc1cc(C(=O)N2C[C@H](N)[C@@H]3CC[C@H]2C3)cc2nc(-c3cc4ccc5nc4n3CCC[C@H]3C[C@@H]3c3ccccc3C(=O)N[C@@H]5C)n(C)c12 [Example 893]
12,72,"COc1cc(C(=O)N2C[C@H](N)[C@@H]3CC[C@H]2C3)cc2nc(-c3cc4ccc5nc4n3CCCCCCC3(CC3)C(=O)N[C@@H]5C)n(C)c12 [Example 445, (11~{R})-17-[5-[(1~{S},4~{R},5~{R})-4-amino-2-azabicyclo[3.2.1]octane-2-carbonyl]-7-methoxy-1-methyl-benzimidazol-2-yl]-11-methyl-spiro[1,10,19-triazatricyclo[10.5.2.0^{15,18}]nonadeca-12(19),13,15(18),16-tetraene-8,1′-cyclopropane]-9-one]"
13,56,"COc1cc(C(=O)N2CC[C@@H](O)[C@@H](N)C2)cc2nc(-c3cc4ccc5nc4n3CCCCCCC(C)(C)C(=O)N[C@@H]5C)n(C)c12 [Example 195, (11~{R})-17-[5-[(3~{S},4~{R})-3-amino-4-hydroxy-piperidine-1-carbonyl]-7-methoxy-1-methyl-benzimidazol-2-yl]-8,8,11-trimethyl-1,10,19-triazatricyclo[10.5.2.0^{15,18}]nonadeca-12(19),13,15(18),16-tetraen-9-one]"
14,27400,"CN[C@H]1CN(C(=O)c2cc(OC)c3c(c2)nc(-c2cc4ccc5nc4n2CCCCCCC(C)(C)C(=O)N[C@@H]5C)n3C)CC[C@H]1OC [Example 105, (11~{R})-17-[7-methoxy-5-[(3~{S},4~{R})-4-methoxy-3-(methylamino)piperidine-1-carbonyl]-1-methyl-benzimidazol-2-yl]-8,8,11-trimethyl-1,10,19-triazatricyclo[10.5.2.0^{15,18}]nonadeca-12(19),13,15(18),16-tetraen-9-one]"
15,109,"C[C@H]1NC(=O)[C@@H]2C[C@H]2CCCCCn2c(-c3nc4cc(C(=O)N5CC6(CCCNC6)C5)c(F)cc4n3C3CC3)cc3ccc1nc32 [Example 569, (2~{R},5~{R},7~{R})-14-[1-cyclopropyl-5-(2,8-diazaspiro[3.5]nonane-2-carbonyl)-6-fluoro-benzimidazol-2-yl]-2-methyl-3,13,19-triazatetracyclo [11.5.2.0^{5,7}.0^ {16,20}]icosa-1(19),14, 16(20),17-tetraen-4-one]"
16,525,"COc1cc(C(=O)N2CCC[C@@H](N)C2)cc2nc(-c3cc4ccc5nc4n3CCC3(CC3)COCCC(=O)N[C@@H]5C)c(C)n12 [Example 303, (11~{R})-17-[7-[(3~{R})-3-aminopiperidine-1-carbonyl]-5-methoxy-3-methyl-imidazo[1,2-a]pyridin-2-yl]-11-methyl-spiro[6-oxa-1,10,19-triazatricyclo[10.5.2.0^{15,18}]nonadeca-12(19),13,15(18),16-tetraene-4,1′-cyclopropane]-9-one]"
17,25,"COc1cc(C(=O)N2C[C@H]3CC[C@@H]2[C@@H]3N)cc2nc(-c3cc4ccc5nc4n3CCCCCCCCC(=O)N[C@@H]5C)n(C)c12 [Example 289, (12~{R})-18-[5-[(1~{R},4~{R},7~{R})-7-amino-2-azabicyclo[2.2.1]heptane-2-carbonyl]-7-methoxy-1-methyl-benzimidazol-2-yl]-12-methyl-1,11,20-triazatricyclo[11.5.2.0^{16,19}]icosa-13(20),14,16(19),17-tetraen-10-one]"
18,104,"COc1cc(C(=O)N2CCC[C@@H](N)C2)cc2nc(-c3cc4ccc5nc4n3CCCCCC[C@@](C)(C(F)(F)F)C(=O)N[C@@H]5C)n(C)c12 [Example 1, (8~{R},11~{R})-17-[5-[(3~{R})-3-aminopiperidine-1-carbonyl]-7-methoxy-1-methyl-benzimidazol-2-yl]-8,11-dimethyl-8-(trifluoromethyl)-1,10,19-triazatricyclo[10.5.2.0^{15,18}]nonadeca-12(19),13,15(18),16-tetraen-9-one]"
19,36,"COc1cc(C(=O)N2CCC[C@@H](N)[C@H]2C)cc2nc(-c3cc4ccc5c(F)c4n3CCCCCCC(C)(C)C(=O)N[C@@H]5C)n(C)c12 [Example 645, (11~{R})-17-[5-[(2~{R},3~ {R})-3-amino-2-methyl-piperidine-1-carbonyl]-7-methoxy-1-methyl-benzimidazol-2-yl]-19-fluoro-8,8,11-trimethyl-1,10-diazatricyclo [10.5.2.0^{15,18}]nonadeca-12(19),13,15(18),16-tetraen-9-one]"
